From ChEMBL document CHEMBL3817816, “Improvement of the pharmacological properties of amidated kyotorphin by means of iodination” (Medchemcomm, 2016)

How the values were obtained:
[1] = Stability of compound in Sprague-Dawley rat serum assessed as remaining parent compound at 5 mins by RP-HPLC analysis; format: ADME; conditions: read-out: Stability
Blood [2] = assay: Drug uptake in Sprague-Dawley rat blood at 11 MBq, ip after 5 mins by gamma counting assay; format: ADME, organism-based; conditions: in vivo
Intestine [3] = assay: Drug uptake in Sprague-Dawley rat intestine at 11 MBq, ip after 10mins by gamma counting assay; format: ADME, organism-based; conditions: in vivo
[4] = Stability of compound in saline at 11 kBq/uL up to 1 week at 4 degC by HPLC analysis; format: physicochemical; conditions: buffer, 168 h
Liver [5] = assay: Drug uptake in Sprague-Dawley rat liver at 11 MBq, ip after 10mins by gamma counting assay; format: ADME, organism-based; conditions: in vivo
Spleen [6] = assay: Drug uptake in Sprague-Dawley rat spleen at 11 MBq, ip after 10mins by gamma counting assay; format: ADME, organism-based; conditions: in vivo
Rattus norvegicus [7] = assay: Analgesic activity in Wistar Han rat assessed as time required to show maximal effect at 44.42 mg/kg, ip administered as single dose by hot plate test; format: functional
Heart [8] = assay: Drug uptake in Sprague-Dawley rat heart at 11 MBq, ip after 5 mins by gamma counting assay; format: ADME, organism-based; conditions: in vivo
Lung [9] = assay: Drug uptake in Sprague-Dawley rat lung at 11 MBq, ip after 10mins by gamma counting assay; format: ADME, organism-based; conditions: in vivo
Muscle tissue [10] = assay: Drug uptake in Sprague-Dawley rat muscle at 11 MBq, ip after 10mins by gamma counting assay; format: ADME, organism-based; conditions: in vivo
Muscle tissue [11] = assay: Drug uptake in Sprague-Dawley rat muscle at 11 MBq, ip after 5 mins by gamma counting assay; format: ADME, organism-based; conditions: in vivo
Femur [12] = assay: Drug uptake in Sprague-Dawley rat femur at 11 MBq, ip after 10mins by gamma counting assay; format: ADME, organism-based; conditions: in vivo
Brain [13] = assay: Drug uptake in Sprague-Dawley rat brain at 11 MBq, ip after 5 mins by gamma counting assay; format: ADME, organism-based; conditions: in vivo
Liver [14] = assay: Stability of compound in Sprague-Dawley rat liver homogenate assessed as remaining parent compound […] at 10 mins by RP-HPLC analysis; format: ADME; conditions: iv
Blood [15] = assay: Drug uptake in Sprague-Dawley rat blood at 11 MBq, ip after 10mins by gamma counting assay; format: ADME, organism-based; conditions: in vivo
Kidney [16] = assay: Stability of compound in Sprague-Dawley rat kidney homogenate assessed as remaining parent compound at 10 mins by RP-HPLC analysis; format: ADME, tissue-based; conditions: tissue homogenate
Spleen [17] = assay: Drug uptake in Sprague-Dawley rat spleen at 11 MBq, ip after 5 mins by gamma counting assay; format: ADME, organism-based; conditions: in vivo
Thyroid gland [18] = assay: Drug uptake in Sprague-Dawley rat thyroid at 11 MBq, ip after 10mins by gamma counting assay; format: ADME, organism-based; conditions: in vivo
[19] = Octanol-PBS partition coefficient, log P of the compound at pH 7.4 by shake flask method; format: physicochemical
Femur [20] = assay: Drug uptake in Sprague-Dawley rat femur at 11 MBq, ip after 5 mins by gamma counting assay; format: ADME, organism-based; conditions: in vivo
Stomach [21] = assay: Drug uptake in Sprague-Dawley rat stomach at 11 MBq, ip after 10mins by gamma counting assay; format: ADME, organism-based; conditions: in vivo
Lung [22] = assay: Drug uptake in Sprague-Dawley rat lung at 11 MBq, ip after 5 mins by gamma counting assay; format: ADME, organism-based; conditions: in vivo
Intestine [23] = assay: Drug uptake in Sprague-Dawley rat intestine at 11 MBq, ip after 5 mins by gamma counting assay; format: ADME, organism-based; conditions: in vivo
Kidney [24] = assay: Drug uptake in Sprague-Dawley rat kidney at 11 MBq, ip after 10mins by gamma counting assay; format: ADME, organism-based; conditions: in vivo
[25] = Permeability across apical to basolateral side of mouse bEND.3 cells at 37 kBq/200 uL after 10 hrs by transwell assay relative to control; format: ADME
Brain [26] = assay: Drug uptake in Sprague-Dawley rat brain at 11 MBq, ip after 10mins by gamma counting assay; format: ADME, organism-based; conditions: in vivo
Stomach [27] = assay: Drug uptake in Sprague-Dawley rat stomach at 11 MBq, ip after 5 mins by gamma counting assay; format: ADME, organism-based; conditions: in vivo
Heart [28] = assay: Drug uptake in Sprague-Dawley rat heart at 11 MBq, ip after 10mins by gamma counting assay; format: ADME, organism-based; conditions: in vivo
Liver [29] = assay: Drug uptake in Sprague-Dawley rat liver at 11 MBq, ip after 5 mins by gamma counting assay; format: ADME, organism-based; conditions: in vivo
Thyroid gland [30] = assay: Drug uptake in Sprague-Dawley rat thyroid at 11 MBq, ip after 5 mins by gamma counting assay; format: ADME, organism-based; conditions: in vivo
Kidney [31] = assay: Drug uptake in Sprague-Dawley rat kidney at 11 MBq, ip after 5 mins by gamma counting assay; format: ADME, organism-based; conditions: in vivo
Rattus norvegicus [32] = assay: Analgesic activity in Wistar Han rat assessed as time required to show maximal effect at 56.47 mg/kg, ip administered as single dose by hot plate test; format: functional
Rattus norvegicus [33] = assay: Analgesic activity in Wistar Han rat assessed as time required to show maximal effect at 5 mg/kg, ip by hot plate test; format: functional

Work on `N=C(N)NCCC[C@H](NC(=O)[C@@H](N)Cc1ccc(O)c([125I])c1)C(N)=O` yielded a remaining at 5 min [1] of 72.5%, a Drug uptake (Blood [2]) of 0.5 % ID/g and a Drug uptake (Intestine [3]) of 1.06 % ID/g. For the same compound, the Stability [4] was “Stable”, the Drug uptake (Liver [5]) was 0.88 % ID/g and the Drug uptake (Spleen [6]) was 0.33 % ID/g. For the same compound, the Time (Rattus norvegicus [7]) was 30 min, the Drug uptake (Heart [8]) was 0.26 % ID/g and the Drug uptake (Lung [9]) was 0.35 % ID/g. It also gave a Drug uptake (Muscle tissue [10]) of 0.26 % ID/g, a Drug uptake (Muscle tissue [11]) of 0.28 % ID/g and a Drug uptake (Femur [12]) of 0.27 % ID/g. For the same compound, the Drug uptake (Brain [13]) was 0.03 % ID/g, the Stability (Liver [14]) was “Unstable” and the Drug uptake (Blood [15]) was 0.68 % ID/g. The Stability (Kidney [16]) was “Unstable”, the Drug uptake (Spleen [17]) was 1.1 % ID/g and the Drug uptake (Thyroid gland [18]) was 0.7 % ID/g. The logD [19] was -1.8, the Drug uptake (Femur [20]) was 0.22 % ID/g and the Drug uptake (Stomach [21]) was 0.98 % ID/g. For the same compound, the Drug uptake (Lung [22]) was 0.5 % ID/g, the Drug uptake (Intestine [23]) was 1.6 % ID/g and the Drug uptake (Kidney [24]) was 0.57 % ID/g. The “fold change (FC)” value [25] was 0.49, the Drug uptake (Brain [26]) was 0.07 % ID/g and the Drug uptake (Stomach [27]) was 0.48 % ID/g. It also gave a Drug uptake (Heart [28]) of 0.32 % ID/g, a Drug uptake (Liver [29]) of 0.9 % ID/g and a Drug uptake (Thyroid gland [30]) of 2.7 % ID/g. For the same compound, the Drug uptake (Kidney [31]) was 0.5 % ID/g.

Compound `N=C(N)NCCC[C@H](NC(=O)[C@@H](N)Cc1cc([125I])c(O)c([125I])c1)C(N)=O` has a Time (Rattus norvegicus [32]) of 30 min.

Compound `N=C(N)NCCC[C@H](NC(=O)[C@@H](N)Cc1ccc(O)cc1)C(N)=O` has a Time (Rattus norvegicus [33]) of 15 min.
